The subject of this test is 13 viruses and variants. The test can be described thus: organism not typed. The format is cell-based.

Experimental findings from patent US20260124192A1, “COMPOUNDS, COMPOSITIONS, AND METHODS OF TREATING RNA VIRAL INFECTIONS” (priority 2024, published 2026) are described below.

Structures are written as SMILES.

For the compound `Cc1c(-c2ccc(O)cc2)n(Cc2ccc(OCCN3CCCCC3)cc2)c2ccc(O)cc12` [Pipendoxifene], the potency result is “submicromolar potency”.
